Test results reported in PubChem BioAssay (NCI).
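Five concentrations, 48 hours, 96-well plates. TGI marks complete inhibition of growth.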 Where a SMILES comes first, the peptide text is derived from it. [ ]: non-standard residue; d: D form. Ac5c = NC1(C(=O)O)CCCC1

Columns and labels:
Experiment in all cases: NCI-60 cell line screen, 48 h
[1] = tested on: BT-549 breast
[2] = tested on: HL-60(TB) leukemia
[3] = tested on: HOP-92 NSCLC
[4] = tested on: A498 renal
[5] = tested on: UACC-62 melanoma
[6] = tested on: EKVX NSCLC
[7] = tested on: SNB-19 CNS
[8] = tested on: PC-3 prostate
[9] = tested on: SF-268 CNS
[10] = tested on: DU-145 prostate
[11] = tested on: OVCAR-4 ovarian
[12] = tested on: NCI-H460 lung
[13] = tested on: SR leukemia
[14] = tested on: HCC-2998 colon
[15] = tested on: SF-295 CNS
[16] = tested on: NCI-H522 lung
[17] = tested on: T-47D breast
[18] = tested on: SK-OV-3 ovarian
[19] = tested on: NCI/ADR-RES ovarian
[20] = tested on: OVCAR-3 ovarian
[21] = tested on: MDA-N
[22] = tested on: KM12 colon
[23] = tested on: RXF 393 renal
[24] = tested on: UO-31 renal
[25] = tested on: SK-MEL-28 melanoma
[26] = tested on: OVCAR-5 ovarian
[27] = tested on: IGROV1 ovarian
[28] = tested on: HCT-116 colon
[29] = tested on: MALME-3M melanoma
[30] = tested on: SK-MEL-2 melanoma
[31] = tested on: NCI-H226 lung
[32] = tested on: K-562 leukemia
[33] = tested on: OVCAR-8 ovarian
[34] = tested on: HT29 colon
[35] = tested on: TK-10 renal
[36] = tested on: NCI-H23 lung
[37] = tested on: RPMI-8226 leukemia
[38] = tested on: A549 NSCLC
[39] = tested on: CAKI-1 renal
[40] = tested on: SK-MEL-5 melanoma
[41] = tested on: CCRF-CEM leukemia
[42] = tested on: MDA-MB-231 breast
[43] = tested on: MOLT-4 leukemia
[44] = tested on: SF-539 CNS
[45] = tested on: MCF7 breast
[46] = tested on: HCT-15 colon
[47] = tested on: SW-620 colon
[48] = tested on: MDA-MB-435
[49] = tested on: SN12C renal
[50] = tested on: ACHN renal
[51] = tested on: 786-0 renal
[52] = tested on: LOX IMVI melanoma
[53] = tested on: UACC-257 melanoma
[54] = tested on: HOP-62 NSCLC
[55] = tested on: HS 578T breast
[56] = tested on: U251 CNS
[57] = tested on: COLO 205 colon
[58] = tested on: M14 melanoma
[59] = tested on: SNB-75 CNS

`O=C1C=CC(=O)N1n1c(Cc2ccccc2)n[nH]c1=O` showed a TGI [1] greater than 100 µM, a TGI [2] greater than 100 µM and a TGI [3] greater than 100 µM. For the same compound, the TGI [4] was greater than 100 µM, the TGI [5] was greater than 100 µM and the TGI [6] was greater than 100 µM. For the same compound, the TGI [7] was greater than 100 µM, the TGI [8] was greater than 100 µM and the TGI [9] was greater than 100 µM. For the same compound, the TGI [10] was greater than 100 µM, the TGI [11] was greater than 100 µM and the TGI [12] was greater than 100 µM. It also gave a TGI [13] greater than 100 µM, a TGI [14] greater than 100 µM and a TGI [15] greater than 100 µM. It also gave a TGI [16] greater than 100 µM, a TGI [17] greater than 100 µM and a TGI [18] greater than 100 µM. For the same compound, the TGI [19] was greater than 100 µM, the TGI [20] was greater than 100 µM and the TGI [21] was greater than 100 µM. The TGI [22] was greater than 100 µM, the TGI [23] was greater than 100 µM and the TGI [24] was greater than 100 µM. For the same compound, the TGI [25] was greater than 100 µM, the TGI [26] was greater than 100 µM and the TGI [27] was greater than 100 µM. For the same compound, the TGI [28] was greater than 100 µM, the TGI [29] was greater than 100 µM and the TGI [30] was greater than 100 µM. For the same compound, the TGI [31] was greater than 100 µM, the TGI [32] was greater than 100 µM and the TGI [33] was greater than 100 µM. For the same compound, the TGI [34] was greater than 100 µM, the TGI [35] was greater than 100 µM and the TGI [36] was greater than 100 µM. For the same compound, the TGI [37] was greater than 100 µM, the TGI [38] was greater than 100 µM and the TGI [39] was greater than 100 µM. It also gave a TGI [40] greater than 100 µM, a TGI [41] greater than 100 µM and a TGI [42] greater than 100 µM. It also gave a TGI [43] greater than 100 µM, a TGI [44] greater than 100 µM and a TGI [45] greater than 100 µM. The TGI [46] was greater than 100 µM, the TGI [47] was greater than 100 µM and the TGI [48] was greater than 100 µM. It also gave a TGI [49] greater than 100 µM, a TGI [50] greater than 100 µM and a TGI [51] greater than 100 µM. It also gave a TGI [52] greater than 100 µM, a TGI [53] greater than 100 µM and a TGI [54] greater than 100 µM. The TGI [55] was greater than 100 µM, the TGI [56] was greater than 100 µM and the TGI [57] was greater than 100 µM.
For `NCC(=O)NC1(C(=O)O)CCCC1` (H-Gly-[Ac5c]-OH), the TGI [1] was greater than 100 µM, the TGI [3] was greater than 100 µM and the TGI [4] was greater than 100 µM. The TGI [5] was greater than 100 µM, the TGI [6] was greater than 100 µM and the TGI [7] was greater than 100 µM. It also gave a TGI [8] greater than 100 µM, a TGI [9] greater than 100 µM and a TGI [10] greater than 100 µM. For the same compound, the TGI [11] was greater than 100 µM, the TGI [12] was greater than 100 µM and the TGI [13] was greater than 100 µM. The TGI [14] was greater than 100 µM, the TGI [15] was greater than 100 µM and the TGI [16] was greater than 100 µM. The TGI [17] was greater than 100 µM, the TGI [18] was greater than 100 µM and the TGI [19] was greater than 100 µM. For the same compound, the TGI [20] was greater than 100 µM, the TGI [21] was greater than 100 µM and the TGI [22] was greater than 100 µM. The TGI [23] was greater than 100 µM, the TGI [24] was greater than 100 µM and the TGI [25] was greater than 100 µM. The TGI [26] was greater than 100 µM, the TGI [27] was greater than 100 µM and the TGI [28] was greater than 100 µM. It also gave a TGI [29] greater than 100 µM, a TGI [30] greater than 100 µM and a TGI [32] greater than 100 µM. It also gave a TGI [33] greater than 100 µM, a TGI [34] greater than 100 µM and a TGI [35] greater than 100 µM. It also gave a TGI [36] greater than 100 µM, a TGI [37] greater than 100 µM and a TGI [58] greater than 100 µM. For the same compound, the TGI [38] was greater than 100 µM, the TGI [39] was greater than 100 µM and the TGI [40] was greater than 100 µM. For the same compound, the TGI [42] was greater than 100 µM, the TGI [43] was greater than 100 µM and the TGI [44] was greater than 100 µM. It also gave a TGI [45] greater than 100 µM, a TGI [46] greater than 100 µM and a TGI [47] greater than 100 µM. The TGI [48] was greater than 100 µM, the TGI [49] was greater than 100 µM and the TGI [50] was greater than 100 µM. For the same compound, the TGI [51] was greater than 100 µM, the TGI [52] was greater than 100 µM and the TGI [53] was greater than 100 µM. It also gave a TGI [54] greater than 100 µM, a TGI [59] greater than 100 µM and a TGI [55] greater than 100 µM. For the same compound, the TGI [56] was greater than 100 µM and the TGI [57] was greater than 100 µM.
`O=C(O)CCc1nc2c(n1Cc1ccccc1)C(=O)c1ccccc1C2=O` was tested, and the TGI [1] was greater than 100 µM, the TGI [2] was greater than 100 µM and the TGI [3] was 66.4 µM. It also gave a TGI [4] greater than 100 µM, a TGI [5] greater than 100 µM and a TGI [6] greater than 100 µM. The TGI [7] was greater than 100 µM, the TGI [8] was greater than 100 µM and the TGI [9] was greater than 100 µM. The TGI [10] was greater than 100 µM, the TGI [11] was greater than 100 µM and the TGI [12] was greater than 100 µM. It also gave a TGI [13] greater than 100 µM, a TGI [14] greater than 100 µM and a TGI [15] greater than 100 µM. The TGI [16] was 72.1 µM, the TGI [17] was greater than 100 µM and the TGI [18] was greater than 100 µM. For the same compound, the TGI [19] was greater than 100 µM, the TGI [20] was 85.9 µM and the TGI [21] was 52.8 µM. For the same compound, the TGI [22] was greater than 100 µM, the TGI [23] was greater than 100 µM and the TGI [24] was greater than 100 µM. It also gave a TGI [25] greater than 100 µM, a TGI [26] greater than 100 µM and a TGI [27] greater than 100 µM. It also gave a TGI [28] greater than 100 µM, a TGI [30] of 78.1 µM and a TGI [31] greater than 100 µM. It also gave a TGI [32] greater than 100 µM, a TGI [33] greater than 100 µM and a TGI [34] greater than 100 µM. For the same compound, the TGI [35] was greater than 100 µM, the TGI [36] was greater than 100 µM and the TGI [37] was greater than 100 µM. For the same compound, the TGI [58] was 50.7 µM, the TGI [38] was greater than 100 µM and the TGI [39] was greater than 100 µM. It also gave a TGI [40] of 43.5 µM, a TGI [41] greater than 100 µM and a TGI [42] greater than 100 µM. The TGI [43] was greater than 100 µM, the TGI [44] was greater than 100 µM and the TGI [45] was greater than 100 µM. For the same compound, the TGI [46] was greater than 100 µM, the TGI [47] was greater than 100 µM and the TGI [48] was 35.8 µM. The TGI [49] was greater than 100 µM, the TGI [50] was greater than 100 µM and the TGI [51] was greater than 100 µM. It also gave a TGI [52] greater than 100 µM, a TGI [53] greater than 100 µM and a TGI [54] greater than 100 µM. For the same compound, the TGI [59] was greater than 100 µM, the TGI [55] was greater than 100 µM and the TGI [56] was greater than 100 µM. It also gave a TGI [57] greater than 100 µM.
